In patent US8623325B2, “Azide modified charge sensitive channel proteins” (priority 2008, dated 2014):

Molecular target: T1, E. coli channel protein MscL Gly22Cys (Escherichia coli, UniProt P0A742, G22C)
T1 construct: made in house
Assay: Calcein release from liposomes containing MscL Gly22Cys (self-quenching fluorescent dye)
Type: biochemical
Protocol: MscL-MA was reconstituted into synthetic liposomes composed of azolectin by using a detergent mediated reconstitution method. The incorporation of channels protein in lipid vesicles is describe in detail in WO2005051902 This procedure was performed in the presence of calcein, a self-quenching fluorescent dye. At high local concentrations inside the liposomes, the fluorescence of calcein is low. Release of calcein from liposomes results in dilution of the dye and consequently in a large increase in fluorescence intensity. The labelling and reconstitution was validated by using unlabeled MscL instead of MscL-MA.
The activity of azide labeled Gly22Cys MscL in the liposome was verified with triphenylphosphine (Trisodium triphenylphosphine-3,3′,3″-trisulfonate) at pH 7.2-7.5 at 37° C.
A control experiment was performed using vesicles with unlabelled Gly22Cys MscL and the channel activator MTSET, which is a charged and cysteine-reactive molecule.
MscL-MA has a closed conformation. Calcein can not leave from a vesicle via this closed MscL-MA. To these vesicles MTSET was added. Unlabelled cysteine residues, if present, will react with MTSET and introduce a charge in the channel protein resulting in the opening of the channel and release of fluorescent label. Such residual activation was not observed, showing that a quantitative MA labelling of all cysteines in MscL was obtained (FIG. 7, bottom panel).
In the experimental setting calcein-filled vesicles with MscL-MA are treated with triphenylphosphine at […].
Control experiments are performed using the same calcein filled vesicles with MscL, which is not modified with MA and wherein these unmodified vesicles are treated with triphenylphosphine.

T1 sequence (P0A742 whole entry G22C): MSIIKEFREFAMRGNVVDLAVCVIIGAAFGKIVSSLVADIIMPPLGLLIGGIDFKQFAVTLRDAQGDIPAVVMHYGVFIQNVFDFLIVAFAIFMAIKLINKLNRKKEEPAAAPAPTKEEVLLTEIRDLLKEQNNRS

| Compound | calcein release after addition of MTSET (calcein-filled liposomes with unlabelled (unmodified) Gly22Cys MscL) | activation / calcein release after addition of MTSET (vesicles with azide-modified MscL (MscL-MA)) | release from MscL upon contacting with phosphine (MscL modified with compound IX, calcein filled vesicles, pH 7.4) |
| --- | --- | --- | --- |
| C[N+](C)(C)CCSS(C)(=O)=O.[Br-] [MTSET] | resulted in calcein release | could not activate the modified MscL | – |
| CS(=O)(=O)SCCOC(=O)CNC(=O)OCc1ccc(N=[N+]=[N-])cc1 [compound IX] | – | – | significant increase in release |
